Results as given in patent publication US11267859B2, “GM-CSF mimetics and methods of making and using same” (The Regents of the University of Colorado, a body corporate, priority 2017, dated 2022).

Tests used:
TF-1 cells [1] = assay: ATPlite viability assay of GM-CSF-dependent TF-1 cells grown without GM-CSF; format: cell-based, human; details: for GM-CSF receptor agonist activity (cell viability, ATPlite): TF-1 cells without GM-CSF, 1 nM, 10 nM or 50 nM; for activity as a GM-CSF mimetic/agonist: summary statement citing FIGS. 1A-1B, FIGS. 2A-2C
Experimental: FIGS. 1A-1B comprise bar graphs illustrating use of the ATPlite assay to examine the viability of the GM-CSF-dependent human erythroleukemic cell line TF-1 (Hansen, et al., 2008, Cell 134(3):496-507) treated with GM-CSF mimetics of the invention (M1, M5, or M6; 1 nM, 10, nM, or 50 nM). TF-1 cells grown in the absence of GM-CSF (control) served as a negative control, and TF-1 cells grown in the presence of GM-CSF (GM-CSF; 0.7 nM) served as a positive control. […] Error bars represent standard error of the mean. *** indicates P<0.0001, * indicates P≤0.03, compared to control.
In order to determine whether a synthetic fragment of GM-CSF or a construct comprising a combination of GM-CSF fragments linked together using PEG linkers is an agonist of the GM-CSF receptor, human cell lines dependent on GM-CSF for proliferation were employed: specifically, the human hematopoietic cell line TF-1 (Hansen, et al., 2008, Cell 134(3): 496-507) and the human cell line MOTE (Monfardini, et al., 2002, Curr Pharm Des 8(24):2185-2199) (both obtained from American Type Culture Collection, or ATCC).
In experiments with the TF-1 cell line, it was determined whether the GM-CSF mimetics of the invention were sufficient to support cell growth and viability in the absence of GM-CSF. Specifically, the cells were grown in medium without GM-CSF (control) as a negative control, in medium supplemented with GM-CSF (GM-CSF; 0.7 nM) as a positive control, or in medium supplemented with one of the GM-CSF mimetics of the invention (i.e., M1, M5, or M6; 1 nM, 10 nM, or 50 nM; FIGS. 1A-1B). Cell viability was measured using the ATPlite assay (PerkinElmer) to determine whether the GM-CSF mimetics of the invention were capable of maintaining the viability of TF-1 cells, which require GM-CSF, thus providing a measure of agonist activity.

TF-1 cells [2] = assay: Live cell counts of GM-CSF-starved TF-1 cells by flow cytometry (DAPI); format: cell-based, human; details: TF-1 starved of GM-CSF 24 h, FIG. 2A
Experimental: FIGS. 2A-2C illustrate results of experiments wherein the GM-CSF-dependent human erythroleukemic cell line TF-1 was starved of GM-CSF for 24 h prior to treatment with media containing GM-CSF, with medium containing a GM-CSF mimetic (M1, M5 or M6; 10 nM or 100 nM), or with control medium lacking GM-CSF. The cells were fed fresh medium each day to replenish indicated concentrations (10 nM or 100 nM). Live cell counts from 3-4 replicates were plotted for each of the different conditions in FIG. 2A. […] The plots were gated by front and side scatter for singlets, then gated by DAPI, wherein DAPI-positive cells were dead and DAPI-negative cells were alive, and front scatter for live cells indicated in the selected region with the cell numbers represented below the plots.
Evaluation of ability of the GM-CSF mimetics to support cell growth was carried out by measuring cell number and cell viability by flow cytometry. The TF-1 cell line was first starved of GM-CSF for 24 h, and then plated in various conditions. […] At 72 h post-treatment, the cells were treated with DAPI (1 μg/ml) to label the nuclei of dead cells and were analyzed on a Yeti cell analyzer from Propel Labs. […] Each dot represents an individual measured cell, and increased color by “heat map” indicates a large group of cells with overlapping DAPI and forward scatter area.

[3] = tested on: transgenic mice that express the human GM-CSF receptor (hGMR mice); assay: Blood neutrophil response in transgenic hGMR mice after subcutaneous injection for three days; format: in vivo, mouse; details: s.c.; for percentage of neutrophils at 72 h versus 0 h (paired T-test): three days, P<0.0019 for GM-CSF, P<0.0052 for M6
Experimental: FIGS. 3A-3B comprise a plot illustrating % change in neutrophil levels in blood from transgenic hGMR mice (Nishijima, et al., 1995, Mol. Biol. Cell 6(5):497-508) treated with saline (3 days) as a negative control, with human GM-CSF (hGM-CSF, 5 μg/day×3 days) as a positive control, with the GM-CSF mimetic M1 (M1 5 μg/day×3 days), or with the GM-CSF mimetic M6 (M6, 5 μg/day×3 days) (FIG. 3A). Each connected symbol represents an individual hGMR mouse pre- and post-treatment (0 h and 72 h, respectively). Error bars represent standard error of the mean. […] To determine whether the PEG-based GM-CSF mimetics of the invention are active in vivo, the GM-CSF mimetic molecules M1 and M6 were tested in transgenic mice that express the human GM-CSF receptor and are responsive to human GM-CSF, referred to herein as hGMR mice (Nishijima, et al., 1995, Mol. Biol. Cell 6(5):497-508). The hGMR mice were tested for their responses to M1 or M6. Specifically, the study included four groups of mice: (1) hGMR mice injected subcutaneously with saline (n=4 mice) as a negative control (Saline); (2) hGMR mice injected subcutaneously with commercial human GM-CSF ([…]; n=13 mice) as a positive control, because these mice should respond to human GM-CSF; (3) hGMR mice injected subcutaneously with M1 (5 μg/animal/day; n=5 mice); and (4) hGMR mice injected subcutaneously with M6 (5 μg/animal/day; n=6 mice) for three days. Blood samples were collected before the mice received any injections of saline, human GM-CSF, M1, or M6, and blood samples were also collected after the three days of injections. The percentage of neutrophils present in the blood post-treatment was measured by counting from whole blood smears. FIG. 3A illustrates trends in the percentages of neutrophils in individual mice from each of the four groups; each connected symbol represents an individual hGMR mouse pre- and post-treatment (0 h and 72 h, respectively). FIG. 3B compares the changes in the percentage of neutrophils over the course of the treatment for each of the four groups.

| Substance | GM-CSF receptor agonist activity (cell viability, ATPlite) (TF-1 cells [1]; 24 h post-treatment (FIG. 1A)) | GM-CSF receptor agonist activity (cell viability, ATPlite) (TF-1 cells [1]; 48 h post-treatment (FIG. 1B)) | live cell counts versus negative control (TF-1 cells [2]; 10 nM or 100 nM replenished daily, 72 h post-treatment) | activity as a GM-CSF mimetic/agonist (TF-1 cells [1]) | % change in neutrophils versus saline control group ([3]; 5 μg/animal/day for three days, student's T-test, P<0.046, FIG. 3B) | percentage of neutrophils at 72 h versus 0 h (paired T-test) [3] | number of live cells versus control (TF-1 cells [2]; 100 nM replenished daily, P<0.042) |
| --- | --- | --- | --- | --- | --- | --- | --- |
| QPWEHVNAIQEAR {PEG6} DFLLVIP {PEG6} QPWEHVNAIQEAR {PEG6} DFLLVIP [Mimetic M5] | GM-CSF receptor agonist activity | the agonist effect is also replicated | – | – | – | – | – |
| QPWEHVNAIQEAR (SEQ ID NO: 7) [Mimetic M1] | GM-CSF receptor agonist activity | the agonist effect is also replicated | significant increase in the cell counts over the negative control | active as a GM-CSF mimetic/agonist | – | – | – |
| QPWEHVNAIQEAR {PEG6} DFLLVIP {PEG6} DFLLVIP {PEG6} QPWEHVNAIQEAR [Mimetic M6] | GM-CSF receptor agonist activity | the agonist effect is also replicated | – | – | statistically significantly higher than that for the saline control group | statistically significantly higher at 72 h than at 0 h | significantly lower than control |
| DFLLVIP (SEQ ID NO: 8) [Mimetic M2, human GM-CSF peptide fragment, aa 112-118 of mature GM-CSF] | – | – | – | active as a GM-CSF mimetic/agonist | – | – | – |
| GM-CSF: granulocyte-macrophage colony-stimulating factor; commercial human GM-CSF used as positive control | – | – | – | – | – | statistically significantly higher at 72 h than at 0 h | – |
